Toxic doses and inconclusive results are not listed. Square brackets hold non-standard residues; d marks the D form. Peptide text beside a SMILES is read from it. * marks the point of attachment. ξ: configuration not given here. Cbz = O=C(OCc1ccccc1)*; ξP = O=C(O)C1CCCN1
Tested on: L1210 leukemia ip in BDF1 mice, survival T/C
Assay: NCI In Vivo Anticancer Drug Screen. Data for tumor model L1210 Leukemia (intraperitoneal) in B6D2F1 (BDF1) mice
Conditions: endpoint: mean survival time, higher = longer survival
Summary of the method: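 Tumor was transplanted into mice, which were then dosed with test compound or vehicle alone. Survival was recorded for each group, and the treated figure was expressed relative to the control figure.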

[1] = dose: 100.0 mg/kg/injection, schedule: Q04DX003 (ip), vehicle: Klucel (hydroxypropylcellulose) (HPC)
[2] = dose: 200.0 mg/kg/injection, schedule: Q04DX003 (ip), vehicle: Klucel (hydroxypropylcellulose) (HPC)
[3] = dose: 400.0 mg/kg/injection, schedule: Q04DX003 (ip), vehicle: Klucel (hydroxypropylcellulose) (HPC)
[4] = dose: 100.0 mg/kg/injection, schedule: Q04DX002 (ip), vehicle: Klucel (hydroxypropylcellulose) (HPC)
[5] = dose: 200.0 mg/kg/injection, schedule: Q04DX002 (ip), vehicle: Klucel (hydroxypropylcellulose) (HPC)
[6] = dose: 400.0 mg/kg/injection, schedule: Q04DX002 (ip), vehicle: Klucel (hydroxypropylcellulose) (HPC)
[7] = dose: 100.0 mg/kg/injection, schedule: Q04DX003 (ip), vehicle: saline
[8] = dose: 200.0 mg/kg/injection, schedule: Q04DX003 (ip), vehicle: saline
[9] = dose: 400.0 mg/kg/injection, schedule: Q04DX003 (ip), vehicle: saline
[10] = dose: 100.0 mg/kg/injection, schedule: Q01DX009 (ip), vehicle: Klucel (hydroxypropylcellulose) (HPC)
[11] = dose: 200.0 mg/kg/injection, schedule: Q01DX009 (ip), vehicle: Klucel (hydroxypropylcellulose) (HPC)
[12] = dose: 100.0 mg/kg/injection, schedule: Q01DX001 (ip), vehicle: saline
[13] = dose: 200.0 mg/kg/injection, schedule: Q01DX001 (ip), vehicle: saline
[14] = dose: 400.0 mg/kg/injection, schedule: Q01DX001 (ip), vehicle: saline
[15] = dose: 100.0 mg/kg/injection, schedule: Q01DX001 (ip), vehicle: carboxymethylcellulose (CMC)

## Cc1cc(-c2ccc(NC(=O)Nc3cccc(C4=NCCN4)c3)c(C)c2)ccc1NC(=O)Nc1cccc(C2=NCCN2)c1
dose: 31.2 mg/kg/injection, schedule: Q01DX Z (ip), vehicle: methylcellulose (MC)
  T/C: 97 % of control
dose: 62.5 mg/kg/injection, schedule: Q01DX Z (ip), vehicle: methylcellulose (MC)
  T/C: 103 % of control
dose: 125.0 mg/kg/injection, schedule: Q01DX Z (ip), vehicle: methylcellulose (MC)
  T/C: 103 % of control

## CCN(CC)C(=O)Nc1ccc(C(=O)O)c(O)c1
[1]
  T/C: 95 % of control
[2]
  T/C: 90 % of control
[3]
  T/C: 90 % of control

## N=C([Se])c1cn(C2OC(CO)C(O)C2O)c2ncnc(N)c12 (configuration not stated)
dose: 0.09 mg/kg/injection, schedule: Q01DX009 (ip), vehicle: saline
  T/C: 109 % of control
dose: 0.19 mg/kg/injection, schedule: Q01DX005 (ip), vehicle: saline
  T/C: 119 % of control
dose: 0.19 mg/kg/injection, schedule: Q01DX009 (ip), vehicle: saline
  T/C: 108 % of control
dose: 0.39 mg/kg/injection, schedule: Q01DX005 (ip), vehicle: saline
  T/C: 117 % of control
dose: 0.39 mg/kg/injection, schedule: Q01DX009 (ip), vehicle: saline
  T/C: 104 % of control
dose: 0.78 mg/kg/injection, schedule: Q01DX005 (ip), vehicle: saline
  T/C: 106 % of control

## COc1ccc2c(c1)CSC(c1ccccc1)C2=O (configuration not stated)
[4]
  T/C: 105 % of control
[5]
  T/C: 97 % of control
[6]
  T/C: 90 % of control

## COC(=O)C1CCCN1C(=O)CNC(=O)OCc1ccccc1 (stereo not drawn) (Cbz-Gly-[ξP]-OMe)
[7]
  T/C: 97 % of control
[8]
  T/C: 101 % of control
[9]
  T/C: 95 % of control

## CNC(=O)Oc1ccc(/C=N/NC(=O)c2ccncc2)cc1OC
[10]
  T/C: 97 % of control
[11]
  T/C: 97 % of control

## CCCCC1C/C=C/C=C/C=C/C=C/C(OC2OC(C)C(O)C(N)C2O)CC2OC(O)(CC(O)CC3OC3/C=C/C(=O)O1)CC(O)C2C(=O)O (configuration not stated)
[1]
  T/C: 96 % of control
[2]
  T/C: 98 % of control
[3]
  T/C: 107 % of control

## O=[N+]([O-])c1[nH]c(Br)c(Br)c1Br
dose: 0.75 mg/kg/injection, schedule: Q01DX009 (ip), vehicle: Klucel (hydroxypropylcellulose) (HPC)
  T/C: 92 % of control
dose: 1.5 mg/kg/injection, schedule: Q01DX009 (ip), vehicle: Klucel (hydroxypropylcellulose) (HPC)
  T/C: 89 % of control
dose: 3.0 mg/kg/injection, schedule: Q01DX009 (ip), vehicle: Klucel (hydroxypropylcellulose) (HPC)
  T/C: 89 % of control

## CC12CCC3(CC1CC/C(=C\c1ccco1)C2=O)OCCO3 (configuration not stated)
[12]
  T/C: 101 % of control
[7]
  T/C: 108 % of control
[13]
  T/C: 92 % of control
[8]
  T/C: 95 % of control
[14]
  T/C: 97 % of control
[9]
  T/C: 98 % of control

## O=C1C(Cl)=C(Nc2nc3ccccc3s2)C(=O)c2ccccc21
dose: 100.0 mg/kg/injection, schedule: Q01DX001 (ip), vehicle: Klucel (hydroxypropylcellulose) (HPC)
  T/C: 100 % of control
dose: 200.0 mg/kg/injection, schedule: Q01DX001 (ip), vehicle: Klucel (hydroxypropylcellulose) (HPC)
  T/C: 94 % of control

## CNc1ccn(C2CCCO2)c(=O)n1 (configuration not stated)
[12]
  T/C: 104 % of control
[13]
  T/C: 104 % of control
[14]
  T/C: 104 % of control

## CNC(=O)c1ccc(NC(=O)Nc2ccc(C3=NCCCN3)cc2)cc1NC(=O)Nc1ccc(C2=NCCCN2)cc1
dose: 11.5 mg/kg/injection, schedule: Q01DX Z (ip), vehicle: carboxymethylcellulose (CMC)
  T/C: 108 % of control
dose: 23.0 mg/kg/injection, schedule: Q01DX Z (ip), vehicle: carboxymethylcellulose (CMC)
  T/C: 107 % of control
dose: 46.0 mg/kg/injection, schedule: Q01DX Z (ip), vehicle: carboxymethylcellulose (CMC)
  T/C: 166 % of control
dose: 62.0 mg/kg/injection, schedule: Q01DX Z (oral), vehicle: carboxymethylcellulose (CMC)
  T/C: 111 % of control
dose: 92.0 mg/kg/injection, schedule: Q01DX Z (ip), vehicle: carboxymethylcellulose (CMC)
  T/C: 177 % of control
dose: 125.0 mg/kg/injection, schedule: Q01DX Z (oral), vehicle: carboxymethylcellulose (CMC)
  T/C: 109 % of control
dose: 250.0 mg/kg/injection, schedule: Q01DX Z (oral), vehicle: carboxymethylcellulose (CMC)
  T/C: 108 % of control
dose: 500.0 mg/kg/injection, schedule: Q01DX Z (oral), vehicle: carboxymethylcellulose (CMC)
  T/C: 108 % of control

## COC(=O)[C@@H]1c2cc3c(c(O)c2[C@@H](OC)C[C@@]1(C)O)C(=O)c1c(O)cc2c(c1C3=O)OC1O[C@@]2(C)[C@H](O)[C@@H](N(C)C)[C@@H]1O
dose: 3.12 mg/kg/injection, schedule: Q01DX015 (ip), vehicle: carboxymethylcellulose (CMC)
  T/C: 104 % of control
dose: 6.25 mg/kg/injection, schedule: Q01DX009 (ip), vehicle: saline
  T/C: 106 % of control
dose: 6.25 mg/kg/injection, schedule: Q01DX015 (ip), vehicle: carboxymethylcellulose (CMC)
  T/C: 108 % of control
dose: 12.5 mg/kg/injection, schedule: Q01DX009 (ip), vehicle: saline
  T/C: 112 % of control
dose: 12.5 mg/kg/injection, schedule: Q01DX015 (ip), vehicle: carboxymethylcellulose (CMC)
  T/C: 120 % of control
dose: 25.0 mg/kg/injection, schedule: Q01DX009 (ip), vehicle: saline
  T/C: 109 % of control
dose: 50.0 mg/kg/injection, schedule: Q01DX001 (ip), vehicle: carboxymethylcellulose (CMC)
  T/C: 105 % of control
dose: 50.0 mg/kg/injection, schedule: Q01DX009 (ip), vehicle: saline
  T/C: 112 % of control
dose: 50.0 mg/kg/injection, schedule: Q01DX015 (ip), vehicle: carboxymethylcellulose (CMC)
  T/C: 122 % of control
[15]
  T/C: 117 % of control

## O=C1CCCC/C1=N/Nc1ccccc1
dose: 5.0 mg/kg/injection, schedule: Q01DX009 (ip), vehicle: saline with Tween-80
  T/C: 93 % of control
dose: 5.0 mg/kg/injection, schedule: Q04DX003 (ip), vehicle: saline with Tween-80
  T/C: 98 % of control
dose: 10.0 mg/kg/injection, schedule: Q01DX009 (ip), vehicle: saline with Tween-80
  T/C: 102 % of control
dose: 10.0 mg/kg/injection, schedule: Q04DX003 (ip), vehicle: saline with Tween-80
  T/C: 102 % of control
dose: 20.0 mg/kg/injection, schedule: Q01DX009 (ip), vehicle: saline with Tween-80
  T/C: 95 % of control
dose: 20.0 mg/kg/injection, schedule: Q04DX003 (ip), vehicle: saline with Tween-80
  T/C: 99 % of control

## Cc1c(Cl)ccc2c(C(=O)O)cc(-c3ccc(Cl)cc3)nc12
[15]
  T/C: 100 % of control
dose: 200.0 mg/kg/injection, schedule: Q01DX001 (ip), vehicle: carboxymethylcellulose (CMC)
  T/C: 94 % of control
dose: 400.0 mg/kg/injection, schedule: Q01DX001 (ip), vehicle: carboxymethylcellulose (CMC)
  T/C: 92 % of control

## CNc1nc(Cl)cc2nc(Cl)cn12
[12]
  T/C: 94 % of control
[13]
  T/C: 96 % of control
[14]
  T/C: 96 % of control

## COc1cccc(CCC(=O)c2ccccc2)c1
[4]
  T/C: 106 % of control
[5]
  T/C: 90 % of control
[6]
  T/C: 94 % of control

## CC(C)N(C(=O)COc1ccc(Cl)cc1)c1ccccc1
dose: 50.0 mg/kg/injection, schedule: Q01DX009 (ip), vehicle: Klucel (hydroxypropylcellulose) (HPC)
  T/C: 103 % of control
[10]
  T/C: 104 % of control
[1]
  T/C: 108 % of control
[11]
  T/C: 92 % of control
[2]
  T/C: 93 % of control

## O=C(O)C1C2OC(C(Br)C2Br)C1C(=O)O (configuration not stated)
[4]
  T/C: 106 % of control
dose: 100.0 mg/kg/injection, schedule: Q04DX003 (ip), vehicle: saline with Tween-80
  T/C: 93 % of control
[5]
  T/C: 98 % of control
dose: 200.0 mg/kg/injection, schedule: Q04DX003 (ip), vehicle: saline with Tween-80
  T/C: 95 % of control
[6]
  T/C: 95 % of control

## CCCn1cnc2c(=S)nc(N)[nH]c21
dose: 0.94 mg/kg/injection, schedule: Q01DX Z (ip), vehicle: methylcellulose (MC)
  T/C: 105 % of control
dose: 1.88 mg/kg/injection, schedule: Q01DX Z (ip), vehicle: methylcellulose (MC)
  T/C: 122 % of control
dose: 3.3 mg/kg/injection, schedule: Q01DX Z (ip), vehicle: methylcellulose (MC)
  T/C: 121 % of control
dose: 3.75 mg/kg/injection, schedule: Q01DX Z (ip), vehicle: methylcellulose (MC)
  T/C: 108 % of control
dose: 5.0 mg/kg/injection, schedule: Q01DX Z (ip), vehicle: methylcellulose (MC)
  T/C: 152 % of control
dose: 7.5 mg/kg/injection, schedule: Q01DX Z (ip), vehicle: methylcellulose (MC)
  T/C: 101 % of control
dose: 15.0 mg/kg/injection, schedule: Q01DX Z (ip), vehicle: methylcellulose (MC)
  T/C: 105 % of control
